The record followed here is US20080071190A1, “Timing of Ovulation Based on Vaginal Ph” (priority 2004, published 2008).

Series [1] relates to hECE cells (Human Ectocervical-Vaginal Epithelial Cells). Nature of the series: Determinations of extracellular pH (pHo) in luminal and contra-luminal solutions of hECE cells cultured on filters. The series is classed as cell-based. On the procedure: Referring to FIG. 4A, hECE cells or Human Endocervical Cells were plated on Anocell filters (Anocel™-10, Oxon, UK, obtained through Sigma Chemicals, St. Louis, Mo.), which are ceramic-base filters, pore size of 0.02 μm width, 50 μm depth, and surface area of 0.6 cm^2. Filters 300 and 302 were coated with 4 μg/cm^2 collagen type IV and incubated at 37° C. overnight. The remaining collagen solution was aspirated and the filter was dried at 37° C. Before plating, filters 300 were rinsed 3 times with Hanks' Balanced Salt Solution. Cells were plated either on the upper surface 302 of one filter 300 (for determinations of luminal pHo) or on the bottom surface 304 of the other filter 300 (for determinations of the contra-luminal pHo) at 3·10^5 cells/cm^2. By plating at this relatively high density the cultures became confluent within 12 hours after plating.
Plates containing the filters were placed in a tissue culture incubator (37° C.), and pHo changes in the luminal and contra-luminal solutions were determined using AMANI-1000 microcombination pH electrodes 306 (Harvard Apparatus, Holliston, Mass., obtained through Genomics Solutions, Ann Harbor, Mich.). The AMANI-1000 pH sensor (stored in pH 7.0) is based on metal-metal oxide pH measurements and the pH sensitive layer is immobilized on plastic. The reference electrode employs an Ag/AgCl in 3.4 M KCl reference electrode, and the reference electrode junction is leak-free ensuring no leaks of KCl out of the reference electrode. The design of the pH electrodes 306 enabled their use for the purpose of the present experiments: tip diameter of 1 mm, depth of immersion 1 mm, and response time of less than 5 sec.
Electrodes 306 attached to a stand were held stable with the tip immersed in the solution within the upper compartment of the filter to a depth of about 2 mm avoiding direct contact between the electrode tip and the cultured cells. The electrodes were connected directly to a pH meter 310 (e.g., Accumet pH meter 910) (Fisher Scientific, Suwanee Ga.). After stabilization, the luminal and contraluminal solutions were gently aspirated using glass pipette, and replaced with fresh warmed (37° C.) Basic Salt Solution containing (in mM) NaCl (140), KCl (5), MgCl2 (1), CaCl2 (1), glucose (10), and 0.1% bovine serum albumin, pH 7.4. The volumes in the luminal and contraluminal compartments were 150 μl and 500 μl, respectively. Determinations of changes in pHo were made at time 0, and at 5 min intervals thereafter for up to 30 min.
To remove intracellular estrogens cells were grown in steroid-free medium as described. This procedure involved shifting cells on filters for three days prior to pHo assays to a medium composed of phenol-red-deficient (DMEM)/Ham's F12 or (Sigma Chemicals, St. Louis, Mo.) containing 8% heat inactivated fetal bovine serum that was previously treated with charcoal to remove steroids. Preparation of charcoal-treated serum was described; briefly, dextran-coated charcoal (Sigma Chemicals, St. Louis, Mo.) was dissolved at 8% in 0.15 M NaCl, autoclaved, mixed by stirring, spun and the pellet was resuspended as 1 gm/1.25 ml in H2O. Fetal bovine serum (Hyclone, Logan, Utah) was mixed with the activated charcoal-dextran at 20:1 (Vol:Vol) and incubated for 45 min at 55° C. At the completion of incubation the mixture was spun twice at 800 g for 20 min and the supernatant (serum) was decanted and collected. For experiments, cells were shifted to steroid-free medium for 3 days; alternatively, cells were shifted to the steroid-free medium for 24 hrs and treated with 17β-estradiol for two additional days.

A further series has as its system hECE cells. Kind of series: Cell-vitality staining (MTT assay). The format is cell-based, human. Conditions: Steroid-Free Medium + substance, means ±SD, 3 to 4 repeats. Here is the method:
Cell-vitality staining was done using the 3-[4,5-dimethylthiazol-2-yl]-2,5-diphenyl tetrazolium bromide (MTT) assay. MTT serves as a substrate for mitochondrial dehydrogenases, and only viable functional mitochondria are capable of cleaving MTT to generate the colored product formazan. MTT solution was prepared by dissolving MTT at a concentration of 5 mg/ml in phosphate-buffered saline (PBS) composed of (mM) NaCl (137), KCl (2.68), Na2HPO4 (10), KH2PO4 (1.76), pH 7.4, and filtering the solution through Millipore filter. Following treatments/assays, cells on filters were washed with fresh and warm (37° C.) PBS and incubated for 60 min at 37° C. in MTT solution. At the completion of incubation, cells were washed with PBS, and solubilized in isopropanol containing 0.1 M HCl plus 1% Triton X-100. Lysates were mixed by pipetting to dissolve the reduced MTT crystals (during which time the colorless solution turned purple) and were spinned at 10,000 g for 5 min. The solubilized formazan was measured by determining absorption at 570 nm. Background absorbance at 690 nm was subtracted for each sample, and values were normalized to OD570 (optic density) of control unperturbed cells.

A further series deals with Human Endocervical Cells. Kind of series: Determinations of extracellular pH (pHo) in luminal and contra-luminal solutions of Human Endocervical Cells cultured on filters. As to conditions: steroid-free medium and treatment with 10 nM estradiol, no effect. The format is cell-based. On the procedure: Primary cultures of Human Endocervical Cells were obtained through Clonetics (Walkersville, Md.). Cells chosen for experiments were those obtained from tissues of two women reported as HPV negative, and the cultured Endocervical Cells were tested for mycoplasma. Primary Endocervical cultures were grown and subcultured into second passage using Clonetics proprietary Endocervical Medium (supplied with the cells), and thereafter maintained in hECE culture medium. Cells were characterized as epithelial cells based on typical morphology of a monolayered epithelium; the expression of involucrin; lack of expression of vimentin; and expression of tight junctions (not shown). […] The cells were defined as phenotypically endocervical (in contrast to ectocervical/vaginal) based on expression of apical villi, the abundant expression of cytokeratins 18/19, and minimal expression of cytokeratins 4/5 and 13. Both hECE cells and the Human Endocervical Cells (not shown) expressed functional estrogen receptors. […]
Plates containing the filters were placed in a tissue culture incubator (37° C.), and pHo changes in the luminal and contra-luminal solutions were determined using AMANI-1000 microcombination pH electrodes 306 (Harvard Apparatus, Holliston, Mass., obtained through Genomics Solutions, Ann Harbor, Mich.). […]

Turning to `C[C@]12CC[C@@H]3c4ccc(O)cc4CC[C@H]3[C@@H]1CC[C@@H]2O` [17β-estradiol], in series [1] (Homo sapiens, Epithelial cell, hECE cells grown in steroid-free medium, dose response FIG. 8B, read-out: EC50 of decrease in luminal pHo), the EC50 was about 500 pM. Besides, the “luminal pHo” value in series [1] (hECE cells in steroid-free medium treated with 10 nM 17β-estradiol for two days, 30 min, steroid-free medium alone 7.11±0.02) is recorded as 7.03±0.02; in series [1] (hECE cells in steroid-free medium, 0.1 nM 17β-estradiol, decreased from 7.26±0.03), 7.13±0.03. Besides, the “effect on luminal pHo (dose response)” value is “reached near saturation” in series [1] (hECE cells in steroid-free medium, 1 nM) and “no additional effect” in series [1] (hECE cells in steroid-free medium, 100 nM). The “contra-luminal pHo” value in series [1] (hECE cells, steroid-free medium and treatment with 10 nM estradiol, no effect) is recorded as “around 7.25”. Besides, in the series with hECE cells (Baseline), the “hECE cell vitality (MTT staining normalized to OD570 of control unperturbed cells), Baseline” value was determined as 96 ± 3%. Also, the “hECE cell vitality (MTT staining normalized to OD570 of control unperturbed cells), 30 min pHo” value in the series on hECE cells (after 30 min pHo measurement) was 94 ± 4%. In the series on Human Endocervical Cells, the “contra-luminal pHo or luminal pHo” value is “around 7.25”.

What is called EC50 is the concentration giving half of the maximal effect.
